# Test results taken from patent US11912569B2, “Method for manufacturing chlorous acid water using raw material obtained by salt electrolysis” (HONBUSANKEI CO., LTD., priority 2016, dated 2024).
# Like-named read-outs stand apart in the source and are kept apart here.
# Columns and labels:
# E. coli [1] = type: cell-based
# Protocol: The following samples were prepared to measure the oxidation capability: sodium hypochlorite converted concentration and phenol coefficient for each of the chlorine oxides.
# These samples were used to measure the oxidation capability: sodium hypochlorite converted concentration and phenol coefficient while appropriately dilution with ion exchange water.
# The following sample was prepared. The oxidation capability and phenol coefficient were measured immediately after manufacture and on day 5.
# They were compared based on dissolved chlorine dioxide as the control.
# E. coli [2] = test: Phenol coefficient method; type: cell-based
# Protocol: The following is the operation method thereof.
# 5% phenol solution: Phenol is dissolved with hot water of about 70° C. 25 mL is measured out and precisely diluted to 500 mL with water (40° C.). The specific gravity at 20° C. is confirmed to be within the range of 1.000±0.005.
# Liquid medium (1 L volume): 18.0 g of normal broth medium is added to 1 L of water in a 1000 mL Erlenmeyer flask with a stopper. They are mixed and dissolved for about 30 minutes at normal temperature.
# Liquid medium (volume of 200 mL): about 18.0 g of normal broth medium is added to 1 L of water. They were mixed and dissolved for about 30 minutes at normal temperature.
# Liquid medium (test tube): about 18.0 g of normal broth medium is added to 1 L of water. […]
# The inoculated test tube is placed in a vortex mixer and sealed, and incubated for 24 hours at 37° C. Test segments observed to have opacity after incubation are recorded as “+” and test segments without opacity are recorded as “−”. However, a cotton swab is immersed in the liquid medium of the test segments evaluated as “+”, and the medium is smeared onto a desoxycholate medium (flat plate) from the center to the outside so as to draw a straight line. […]
# After culturing for a predetermined time, samples observed to have a typical red colony where the medium was smeared are evaluated as “+”, and samples with no observed red colony is evaluated as “−”. […]
molecule,measurement,setting,value
[O][Cl+][O-] [Dissolved chlorine dioxide],Oxidation capability: sodium hypochlorite converted concentration at each phenol coefficient,E. coli [1]; phenol coefficient 0,0
same,Oxidation capability: sodium hypochlorite converted concentration at each phenol coefficient,E. coli [1]; phenol coefficient 1,139
same,Oxidation capability: sodium hypochlorite converted concentration at each phenol coefficient,E. coli [1]; phenol coefficient 2,279
same,Oxidation capability: sodium hypochlorite converted concentration at each phenol coefficient,E. coli [1]; phenol coefficient 3,418
same,Oxidation capability: sodium hypochlorite converted concentration at each phenol coefficient,E. coli [1]; phenol coefficient 5,697
same,Oxidation capability: sodium hypochlorite converted concentration at each phenol coefficient,E. coli [1]; phenol coefficient 10,1395
same,Oxidation capability: sodium hypochlorite converted concentration at each phenol coefficient,E. coli [1]; phenol coefficient 15,2092
same,Oxidation capability: sodium hypochlorite converted concentration at each phenol coefficient,E. coli [1]; phenol coefficient 25,3487
sodium chlorite,Oxidation capability: sodium hypochlorite converted concentration at each phenol coefficient,E. coli [1]; phenol coefficient 0,0
same,Oxidation capability: sodium hypochlorite converted concentration at each phenol coefficient,E. coli [1]; phenol coefficient 1,nonexistent
same,Oxidation capability: sodium hypochlorite converted concentration at each phenol coefficient,E. coli [1]; phenol coefficient 2,nonexistent
same,Oxidation capability: sodium hypochlorite converted concentration at each phenol coefficient,E. coli [1]; phenol coefficient 3,nonexistent
same,Oxidation capability: sodium hypochlorite converted concentration at each phenol coefficient,E. coli [1]; phenol coefficient 5,nonexistent
same,Oxidation capability: sodium hypochlorite converted concentration at each phenol coefficient,E. coli [1]; phenol coefficient 10,nonexistent
same,Oxidation capability: sodium hypochlorite converted concentration at each phenol coefficient,E. coli [1]; phenol coefficient 15,nonexistent
same,Oxidation capability: sodium hypochlorite converted concentration at each phenol coefficient,E. coli [1]; phenol coefficient 25,nonexistent
same,phenol coefficient,"E. coli [2]; available chlorine concentration of 25% (w/v), saturation concentration",0
same,phenol coefficient per oxidation capability (100),"E. coli [2]; phenol coefficient divided by oxidation capability and multiplied by 100, from the values of Example 1",0
